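Results reflect a 48-hour exposure of cells in 96-well plates to compound at five concentrations. GI50 = concentration required for 50% inhibition of growth. TGI is the concentration that stops growth completely.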
Legend:
Test in all cases: DTP human tumour cell line panel, 48 h
CAKI-1 renal = test system: CAKI-1 renal
UACC-62 melanoma = test system: UACC-62 melanoma
PC-3 prostate = test system: PC-3 prostate
M14 melanoma = test system: M14 melanoma
SR leukemia = test system: SR leukemia
KM12 colon = test system: KM12 colon
HOP-92 NSCLC = test system: HOP-92 NSCLC
SK-MEL-28 melanoma = test system: SK-MEL-28 melanoma
NCI-H226 lung = test system: NCI-H226 lung
SNB-75 CNS = test system: SNB-75 CNS

Compound	TGI (CAKI-1 renal) [µM]	TGI (UACC-62 melanoma) [µM]	TGI (PC-3 prostate) [µM]	TGI (M14 melanoma) [µM]	TGI (SR leukemia) [µM]	TGI (KM12 colon) [µM]	TGI (HOP-92 NSCLC) [µM]	TGI (SK-MEL-28 melanoma) [µM]	TGI (NCI-H226 lung) [µM]	TGI (SNB-75 CNS) [µM]	GI50 (CAKI-1 renal) [µM]	GI50 (UACC-62 melanoma) [µM]	GI50 (PC-3 prostate) [µM]	GI50 (M14 melanoma) [µM]	GI50 (SR leukemia) [µM]	GI50 (KM12 colon) [µM]	GI50 (HOP-92 NSCLC) [µM]	GI50 (SK-MEL-28 melanoma) [µM]	GI50 (SNB-75 CNS) [µM]	GI50 (NCI-H226 lung) [µM]
CC(=O)OCC1OC(n2ncc(=O)[nH]c2=O)C(OC(C)=O)C1OC(C)=O (stereo not drawn)	> 100	> 100	> 100	> 100	> 100	> 100	> 100	> 100	> 100	> 100										
Cc1cccc(Cl)c1NC(=O)c1cnc(Nc2cc(N3CCOCC3)cc(S(C)(=O)=O)c2)s1	0.742	> 10	> 10	> 10	> 10	> 10	0.303	> 10	> 10	0.196	0.0975	0.922	1.46	4.01	> 10	> 10	0.0294	> 5.14	0.0202	
CC(C)Cc1ccc(C(C)C(=O)NCc2ccc(Cn3c(=O)sn(CCCI)c3=O)cc2)cc1 (stereo not drawn)	1.61	2.44	2.07	1.34	> 100	3.25	1.56	2.46	2.32	1.96	0.404	1.17	0.732	0.429	0.364	1.56	0.308	1.2	0.558	0.884
NC(=O)c1cc(Br)ccc1NC(=O)/C=C/c1ccccc1	> 100	> 100	> 100	> 100	> 100	> 100	25.8	> 100	> 100	10.7	6.17	1.24	1.19	1.96	0.823	1.09	5.34	1.42	2.16	6.93
COc1ccc2c(c1)C(c1cc(OC)c3c(c1)OCO3)C1=C(COC1=O)N2 (stereo not drawn)	> 100	> 100	> 100	0.742	> 100	3.25	> 100	> 100	4.8	37.6	0.769	0.0984	0.356	0.233	0.183	0.227	23.3	0.36	0.381	0.389
CCNCCNc1cc(-c2ccc(C(F)(F)F)cc2)c(C#N)c2nc3cc(Cl)c(Cl)cc3n12	2.82	3.57	3.4	3.12	0.439	3.2	2.96	2.89		2.69	1.45	1.84	1.71	1.59	0.185	1.69	1.41	1.4	1.38	
Cc1ccccc1C(C(=O)NC1CCCCC1)N(C(=O)CNc1ccc(C#N)cc1)c1cccc(F)c1 (stereo not drawn)	> 62.6	> 100	> 100	> 100	92.2	> 100	28.7	> 100	> 94.5	8.97	14.7	18.7	20.3	80.9	16.9	> 100	8.65	32.4	1.38	14.1
O=C1c2c(Cl)c(Cl)c(Cl)c(Cl)c2C(=O)C2(Cl)CC=CCC12Cl (stereo not drawn)	3.68	3.27	3.51	3.19	4.38	3.56	3.87	3.28	4.88	3.34	1.93	1.67	1.8	1.67	1.15	1.84	2.03	1.8	1.84	1.97
COc1cc(CCC(=O)NC[C@@H](O)c2ccccc2)ccc1O	> 100	> 100	> 100	> 100	> 100	> 100	> 100		> 100	> 100	> 100	> 100	> 100	> 100	61.6	> 100	> 100		> 100	> 100
Oc1ccccc1/C=N\NC(=S)N/N=C/c1ccccc1O	3.94	7.56	> 100	6.33	> 100	21.1	64.5	> 100	> 100	38.2	0.548	1.23	5.99	1.63	1.67	3.11	10.3	4.14	2.24	2.26
CN(C)CCS(=O)(=O)Nc1cc(-c2ccc3ncc(C#N)c(Nc4ccc(F)c(Cl)c4)c3c2)cnc1Cl	0.511	0.63	1.72	1.27	> 100		0.409	1.28	2.59	0.562	0.0913	0.169	0.227	0.255	0.282		0.0322	0.176	< 0.0152	0.281
CNC(=O)c1cccc(C#Cc2cncnc2Nc2ccc(OCc3cccc(F)c3)c(Cl)c2)c1	> 25	> 25	> 22.8	> 25	> 25	> 19.4	11	> 17.7	> 17.9	14.4	2.09	16	7.49	10.7	24.2	7.22	3.31	5.82	5.26	5.8
COc1ccc(Cn2cc3c(c2-c2cc(OC)c(OC)c(OC)c2)CCc2c(CO)noc2-3)cc1	20.1	20.7	41.9	2.88	23.2	17.9	22.2	24.5	38.2	24.4	0.342	0.354	0.309	0.215	0.194	0.341	2.97	4.35	0.177	2.94
